In patent US20120129842A1, “BISTHIAZOLE INHIBITORS OF PRO-MATRIX METALLOPROTEINASE ACTIVATION” (priority 2010, published 2012) one finds Kd and IC50 data, which are given here for twelve molecules.

Structures are written as SMILES. Counter-ions that a name gives are not always drawn.

For assay [1], the target named is T1, proMMP9(67-444;ΔFnII) (SEQ ID NO:5) (Homo sapiens, UniProt P14780, DEL216-390).
T1 construct: start methionine (N); made in house; host or cells: E. coli BL21(DE3) RIL
T1 sequence (P14780 with tags, fused parts or gaps DEL216-390): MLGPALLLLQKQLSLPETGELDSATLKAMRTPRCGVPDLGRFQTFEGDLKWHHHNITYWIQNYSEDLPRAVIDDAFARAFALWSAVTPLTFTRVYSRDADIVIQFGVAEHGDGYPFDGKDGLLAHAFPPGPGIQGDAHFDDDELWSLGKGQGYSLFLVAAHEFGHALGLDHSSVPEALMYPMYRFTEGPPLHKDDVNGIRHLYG
The experiment in a line: ThermoFluor binding assay with proMMP9(67-444;ΔFnII). The following applies: pH 7.0. The method, then:
(§1) The ThermoFluor® (TF) assay is a 384-well plate-based binding assay that measures thermal stability of proteins (Biomol Screen 2001, 6, 429-40; Biochemistry 2005, 44, 5258-66). The experiments were carried out using instruments available from Johnson & Johnson Pharmaceutical Research & Development, LLC. TF dye used in all experiments was […] (1,8-ANS) (Invitrogen: A-47).
(§2) Compounds were arranged in a pre-dispensed plate (Greiner Bio-one: 781280), wherein compounds were serially diluted in 100% DMSO across 11 columns within a series. Columns 12 and 24 were used as DMSO reference and contained no compound. For multiple compound concentration-response experiments, the compound aliquots ([…]) were robotically predispensed directly into black 384-well polypropylene PCR microplates (Abgene: TF-0384/k) using a Cartesian Hummingbird liquid handler (DigiLab, Holliston, Mass.). Following compound dispense, protein and dye solutions were added to achieve the final assay volume of 3 μL. The assay solutions were overlayed with 1 μL of silicone oil (Fluka, type DC 200: 85411) to prevent evaporation.
(§3) Assay plates were robotically loaded onto a thermostatically controlled PCR-type thermal block and then heated from 40 to 90° C. at a ramp-rate of 1° C./min for all experiments. Fluorescence was measured by continuous illumination with UV light (Hamamatsu LC6) supplied via fiber optics and filtered through a band-pass filter (380-400 nm; >6 OD cutoff). Fluorescence emission of the entire 384-well plate was detected by measuring light intensity using a CCD camera (Sensys, Roper Scientific) filtered to detect 500±25 nm, resulting in simultaneous and independent readings of all 384 wells. A single image with 20-sec exposure time was collected at each temperature, and the sum of the pixel intensity in a given area of the assay plate was recorded vs temperature and fit to standard equations to yield the Tm (J Biomol Screen 2001, 6, 429-40).
(§4) Thermodynamic parameters necessary for fitting compound binding for each proMMP were estimated by differential scanning calorimetry (DSC) and from ThermoFluor® data. The heat capacity of unfolding for each protein was estimated from the molecular weight and from ThermoFluor® dosing data.
The protein sample preparations had to include a desalting buffer exchange step via a PD-10 gravity column (GE Healthcare). The desalting buffer exchange was performed prior to diluting the protein to the final assay concentration of 3.5 μM proMMP9(67-444;ΔFnII) (SEQ ID NO:5). The concentration of proMMP9(67-444;ΔFnII) (SEQ ID NO:5) was determined spectrophotometrically based on a calculated extinction coefficient of ε280=33900 M^−1cm^−1, a calculated molecular weight of 22.6 kDa, and calculated pI of 5.20. ThermoFluor® reference conditions were defined as follows: 80 μg/mL (3.5 μM) proMMP9(67-444;ΔFnII) (SEQ ID NO:5), 50 μM 1,8-ANS, pH 7.0 Buffer (50 mM HEPES pH 7.0, 100 mM NaCl, 0.001% Tween-20, 2.5 mM MgCl2, 300 μM CaCl2). The thermodynamic parameters for proMMP9(67-444;ΔFnII) (SEQ ID NO:5) are as follows: Tm (° C.)=63 (+/−0.1), ΔUH(Tm) (cal mol^−1)=105000(+/−5000), ΔUS(Tm) (cal mol^−1 K^−1)=[…], ΔUCp (cal mol^−1 K^−1)=2000.
On the technique in general: DSF heats the sample and reads unfolding from a dye or from intrinsic fluorescence.

In assay [2] the target is T2, proMMP9(20-445;ΔFnII) (SEQ ID NO:6) (Homo sapiens, UniProt P14780, DEL216-390).
T2 construct: start methionine (N); made in house; host or cells: E. coli BL21(DE3) RIL
T2 sequence (P14780 with tags, fused parts or gaps DEL216-390): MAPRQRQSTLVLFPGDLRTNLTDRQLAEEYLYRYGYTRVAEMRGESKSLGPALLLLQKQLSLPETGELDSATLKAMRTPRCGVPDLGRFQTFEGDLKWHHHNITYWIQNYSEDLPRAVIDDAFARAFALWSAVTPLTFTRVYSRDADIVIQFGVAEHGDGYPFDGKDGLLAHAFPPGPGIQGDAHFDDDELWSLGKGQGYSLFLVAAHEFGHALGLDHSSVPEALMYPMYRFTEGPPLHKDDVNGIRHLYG
The assay is described as follows: ThermoFluor binding assay with proMMP9(20-445;ΔFnII). The note with it: pH 7.0. How it is done: as §1, §2, §3, §4
The protein sample preparations included a desalting buffer exchange step via a PD-10 gravity column (GE Healthcare). The desalting buffer exchange was performed prior to diluting the protein to the final assay concentration of 2.8 μM proMMP9(20-445;ΔFnII) (SEQ ID NO:6). The concentration of proMMP9(20-445;ΔFnII) (SEQ ID NO:6) was determined spectrophotometrically based on a calculated extinction coefficient of ε280=39880 M^−cm^−1, a calculated molecular weight of 28.2 kDa, and calculated pI of 5.5. ThermoFluor® reference conditions were define as follows: 80 μg/mL (2.8 μM) proMMP9(20-445;ΔFnII) (SEQ ID NO:6), 50 μM 1,8-ANS, pH 7.0 Buffer (50 mM HEPES pH 7.0, 100 mM NaCl, 0.001% Tween-20, 2.5 mM MgCl2, 300 μM CaCl2). The thermodynamic parameters for proMMP9(20-445;ΔFnII) (SEQ ID NO:6) are as follows: Tm (° C.)=72 (+/−0.1), ΔUH(Tm) (cal mol^−1)=160000(+/−5000), ΔUS(Tm) (cal mol^−1 K^−1)=434, ΔUCp (cal mol^−1 K^−)=2400.

Assay [3] deals with proMMP13(1-268) (SEQ ID NO:7) (Homo sapiens, UniProt P45452). The assay is described as follows: ThermoFluor binding assay with proMMP13(1-268). Set-up: 6xHis (C); made in house. The following applies: pH 7.0. How it is done:
as §1, §2, §3, §4
The proMMP13(1-268) (SEQ ID NO:7) protein sample preparations included a desalting buffer exchange step via a PD-10 gravity column (GE Healthcare). The desalting buffer exchange was performed prior to diluting the protein to the final assay concentration of 3.5 μM. The concentration of proMMP13(1-268) (SEQ ID NO:7) was estimated spectrophotometrically based on a calculated extinction coefficient of ε280=37000 M^−1cm^−1, a calculated molecular weight of 30.8 kDa, and calculated pI of 5.33. ThermoFluor® reference conditions were defined as follows: 100 μg/mL proMMP13(1-268) (SEQ ID NO:7), 25 μM 1,8-ANS, pH 7.0 Buffer (50 mM HEPES pH 7.0, 100 mM NaCl, 0.001% Tween-20, 2.5 mM MgCl2, 300 μM CaCl2). The thermodynamic parameters for proMMP13(1-268) (SEQ ID NO:7) are as follows: Tm (° C.)=67 (+/−0.1), ΔUH(Tm) (cal mol^−1)=107000(+/−5000), ΔUS(Tm) (cal mol^−1 K^−1)=318, ΔUCp (cal mol^−1 K^−1)=2600.

Assay [4] addresses T3, full-length proMMP9(1-707) (SEQ ID NO:1) (Homo sapiens, UniProt P14780, R574P).
T3 construct: made in house; host or cells: HEK293 (proMMP9, secreted); E. coli (MMP3)
The assay is described as follows: proMMP9/MMP3 P126 Activation Assay. The note with it: 20 nM proMMP9, 20 nM MMP3, 80 min 37° C. Type of assay: biochemical. How it is done: The reaction volume was 50 μL. […] Reactivity of residual MMP3 towards P-126 substrate was minimal under these conditions.

One may read the Kd as the concentration at which binding is half-saturated. Lower therefore signals higher affinity. As a reminder, the IC50 is the concentration that gives 50% inhibition. High values mean weaker potency, low ones greater potency.

T3 sequence (P14780 20-707 R574P): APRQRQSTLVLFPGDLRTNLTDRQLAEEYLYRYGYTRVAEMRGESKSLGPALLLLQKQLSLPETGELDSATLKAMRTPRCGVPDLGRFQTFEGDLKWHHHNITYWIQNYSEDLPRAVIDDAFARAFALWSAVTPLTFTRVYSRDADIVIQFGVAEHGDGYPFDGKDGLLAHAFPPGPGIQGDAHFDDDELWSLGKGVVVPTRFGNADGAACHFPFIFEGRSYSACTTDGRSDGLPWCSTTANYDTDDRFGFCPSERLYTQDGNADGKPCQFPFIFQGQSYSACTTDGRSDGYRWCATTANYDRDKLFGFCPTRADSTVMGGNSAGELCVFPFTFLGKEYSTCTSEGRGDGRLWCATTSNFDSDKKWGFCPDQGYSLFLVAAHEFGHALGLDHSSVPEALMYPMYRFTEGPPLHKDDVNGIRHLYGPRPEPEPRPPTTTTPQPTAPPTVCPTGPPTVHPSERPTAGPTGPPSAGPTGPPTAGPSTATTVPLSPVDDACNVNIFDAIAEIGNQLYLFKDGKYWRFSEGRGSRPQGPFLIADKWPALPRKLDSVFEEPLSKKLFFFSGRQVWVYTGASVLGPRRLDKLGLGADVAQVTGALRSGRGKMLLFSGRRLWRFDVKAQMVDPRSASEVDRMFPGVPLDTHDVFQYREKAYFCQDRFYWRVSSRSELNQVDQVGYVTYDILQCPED

Take `Cc1nc(C)c(-c2csc(Nc3cc(C(N)=O)ccc3OC(C)C)n2)s1` [Example 1, 3-(2′,4′-Dimethyl-[4,5′]bithiazolyl-2-ylamino)-4-isopropoxy-benzamide.HBr]: the Kd is 170 nM in assay [1], 26 nM in assay [2] and 140 nM in assay [3]. Moreover, in assay [4], the IC50 came to 160 nM.
Take `Cc1nc(N)sc1-c1csc(Nc2cc(C(N)=O)ccc2OC(C)C)n1` [Example 2, 3-(2′-Amino-4′-methyl-[4,5′]bithiazolyl-2-ylamino)-4-isopropoxy-benzamide.HBr]: the results for the Kd in assay [1], in assay [2] and in assay [3] were 160 nM, 21 nM and 81 nM, respectively. Half-maximal inhibition in assay [4] (IC50) required 160 nM.
`CC(=O)Nc1nc(C)c(-c2csc(Nc3cccc4c3OCCO4)n2)s1` [Example 19, N-[2-(2,3-Dihydro-benzo[1,4]dioxin-5-ylamino)-4′-methyl-[4,5′]bithiazolyl-2′-yl]-acetamide]: the values for the equilibrium dissociation constant (Kd) in assay [1], in assay [2] and in assay [3] were 11000 nM, 17000 nM and 62000 nM, respectively.
Take `CCN(CC)S(=O)(=O)c1ccc(OC)c(Nc2nc(-c3sc(N)nc3C)cs2)c1` [Example 21, 3-(2′-Amino-4′-methyl-[4,5′]bithiazolyl-2-ylamino)-N,N-diethyl-4-methoxy-benzenesulfonamide.HBr]: the values for the equilibrium dissociation constant (Kd) in assay [1], in assay [2] and in assay [3] were 2900 nM, 9600 nM and 1700 nM, respectively.
Take `COc1ccc(-c2ccccc2)cc1Nc1nc(-c2sc(N)nc2C)cs1` [Example 23, N^2-(4-Methoxy-biphenyl-3-yl)-4′-methyl-[4,5′]bithiazolyl-2,2′-diamine.HBr]: the dissociation constant (Kd) in assay [1] was 15000 nM; in assay [2], 12000 nM; in assay [3], 980 nM.
In the case of `COc1ccc(C)cc1Nc1nc(-c2sc(N)nc2C)cs1` [Example 24, N^2-(2-Methoxy-5-methyl-phenyl)-4′-methyl-[4,5′]bithiazolyl-2,2′-diamine.HBr], the equilibrium dissociation constant (Kd) in assay [1] turned out to be 2300 nM; in assay [2] it was 8600 nM; in assay [3], 25000 nM.
For the molecule `COc1ccc(C(=O)NCCN2CCCCC2)cc1Nc1nc(-c2sc(NC(C)=O)nc2C)cs1` [Example 58, 3-(2′-Acetylamino-4′-methyl-[4,5′]bithiazolyl-2-ylamino)-4-methoxy-N-(2-piperidin-1-yl-ethyl)-benzamide.TFA], the figures for the Kd in assay [1], in assay [2] and in assay [3] were 6500 nM, 19000 nM and over 95000 nM, respectively.
The corresponding values for `CNC(=O)c1ccc(OC)c(Nc2nc(-c3sc(NC(C)=O)nc3C)cs2)c1` [Example 65, 3-(2′-Acetylamino-4′-methyl-[4,5′]bithiazolyl-2-ylamino)-4-methoxy-N-methyl-benzamide.TFA] are 2800 nM, 3000 nM and 7800 nM.
As to `CCOc1ccc(-c2ncco2)cc1Nc1nc(-c2sc(NC(C)=O)nc2C)cs1` [Example 78, N-[2-(2-Ethoxy-5-oxazol-2-yl-phenylamino)-4′-methyl-[4,5′]bithiazolyl-2′-yl]-acetamide.TFA], the figures for the Kd in assay [1], in assay [2] and in assay [3] were 480 nM, 15000 nM and 2900 nM, respectively.
Turning to `CCOC(=O)c1ccc(OCC)c(Nc2nc(-c3sc(C)nc3C)cs2)c1` [Example 82, 3-(2′,4′-Dimethyl-[4,5′]bithiazolyl-2-ylamino)-4-ethoxy-benzoic acid ethyl ester.HBr], the Kd in assay [1] was 3500 nM; in assay [2], 15000 nM; in assay [3], 13000 nM.
Turning to `COc1ccc(C(N)=O)cc1Nc1nc(-c2sc(N3CCN(C)CC3)nc2C)cs1` [Example 93, 4-Methoxy-3-[4′-methyl-2′-(4-methyl-piperazin-1-yl)-[4,5′]bithiazolyl-2-ylamino]-benzamide.TFA], the values for the equilibrium dissociation constant (Kd) in assay [1], in assay [2] and in assay [3] were 2500 nM, 740 nM and 16000 nM, respectively.
As for `Cc1nc(C(=O)N2CCC(O)CC2)sc1-c1csc(Nc2cc(C(N)=O)ccc2OC(C)C)n1` [Example 105, 3-[2′-(4-Hydroxy-piperidine-1-carbonyl)-4′-methyl-[4,5′]bithiazolyl-2-ylamino]-4-isopropoxy-benzamide.TFA], the values for the Kd in assay [1], in assay [2] and in assay [3] were 2900 nM, 240 nM and 1300 nM, respectively.
